Results taken from paper doi:10.1101/2021.06.15.448479v1 (biorxiv, 2021).

T1: ACER3 (Homo sapiens, UniProt Q9NUN7)
T1 sequence (Q9NUN7 1-267): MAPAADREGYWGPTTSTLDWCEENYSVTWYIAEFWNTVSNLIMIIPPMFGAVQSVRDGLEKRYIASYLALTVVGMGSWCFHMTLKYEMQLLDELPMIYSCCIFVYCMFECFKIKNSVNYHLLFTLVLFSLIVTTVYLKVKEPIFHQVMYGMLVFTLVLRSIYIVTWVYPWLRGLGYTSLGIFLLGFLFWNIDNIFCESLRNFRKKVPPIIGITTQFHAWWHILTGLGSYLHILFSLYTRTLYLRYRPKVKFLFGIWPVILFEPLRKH


Target: T1, ACER3
Assay: FRETcer1 hydrolysis, FRET, crude membranes of overexpressing Sf9 cells
Type: biochemical
Details: not given

Row | IC50 | Molecule
1 | 700 nM | CCCC(C)C(=O)Nc1ccc(Cl)c(C(F)(F)F)c1 (stereo not shown) [compound 02, Compound 02]
2 | 710 nM | CC(C)[C@H]1CC[C@H](C(=O)Nc2ccc(Cl)c(Cl)c2)CC1 [compound 03, N-(3,4-dichlorophenyl)-4-isopropylcyclohexane-1-carboxamide]

Substrate: Cc1c(Br)c(=O)oc2cc3c(cc12)OC(CC(=O)NCCCCCC(=O)N[C@@H](CO)[C@H](O)/C=C/CCCCCCCCCNc1ccc([N+](=O)[O-])c2nonc12)O3
Assay: cells, lysate or membranes
Details: detergent-purified ACER3

Row | Molecule | Km
3 | ACER3 (Homo sapiens) (protein) MAPAADREGYWGPTTSTLDWCEENYSVTWYIAEFWNTVSNLIMIIPPMFGAVQSVRDGLEKRYIASYLALTVVGMGSWCFHMTLKYEMQLLDELPMIYSCCIFVYCMFECFKIKNSVNYHLLFTLVLFSLIVTTVYLKVKEPIFHQVMYGMLVFTLVLRSIYIVTWVYPWLRGLGYTSLGIFLLGFLFWNIDNIFCESLRNFRKKVPPIIGITTQFHAWWHILTGLGSYLHILFSLYTRTLYLRYRPKVKFLFGIWPVILFEPLRKH | 10.76 ± 2.03 µM

Target: T1, ACER3
Assay: FRETcer1 hydrolysis, FRET, crude membranes of overexpressing Sf9 cells
Type: cell-based
Details: not given
Remark: another data set of the same source

Row | IC50 | Molecule
4 | 1210 ± 740 nM | CCCCNC(=O)Cc1noc(C(C)c2cccc(O)c2)n1 (stereo not shown) [Z3016340412]
5 | 1040 ± 350 nM | O=C(Nc1cnn(C2CCC2)c1)N1CCC(c2cccc(F)c2)CC1 [Z2956776388]
6 | 1310 ± 950 nM | Cc1noc(CCNC(=O)N2CCC(c3ccc(F)c(F)c3)CC2)n1 [Z1124621112]
7 | 5290 ± 2160 nM | CCCC(C)NC(=O)c1ccc(Cl)c(Cl)c1 (stereo not shown) [NSC405020]

Target: T1, ACER3
Assay: biochemical
Details: not given

Row | IC50 | Molecule
8 | 2.3 µM | CCCCCCCC/C=C\CCCCCCCC(=O)O [oleic acid]
9 | 9.3 µM | CCCCCCCCCCCCCC(=O)O [myristic acid]
10 | 1.5 µM | CCCCC/C=C\C/C=C\CCCCCCCC(=O)O [linoleic acid]
11 | 29.3 µM | CCCCCCCCCCCCCCCCCC(=O)O [stearic acid]
12 | 1.9 µM | CCCCCC/C=C\CCCCCCCC(=O)O [palmitoleic acid]
13 | 12.6 µM | CCCCCCCCCCCCCCCC(=O)O [palmitic acid]
